From BindingDB's records for patent US12351556 (Inserm (Institut National De La Sante Et De La Recherche …, 2025)

biological target: Mitogen-activated protein kinase 14 (Homo sapiens, UniProt Q16539); assay: In Vitro Affinity Assay
Excerpt: Not found

Chain of Mitogen-activated protein kinase 14 (Q16539 whole entry): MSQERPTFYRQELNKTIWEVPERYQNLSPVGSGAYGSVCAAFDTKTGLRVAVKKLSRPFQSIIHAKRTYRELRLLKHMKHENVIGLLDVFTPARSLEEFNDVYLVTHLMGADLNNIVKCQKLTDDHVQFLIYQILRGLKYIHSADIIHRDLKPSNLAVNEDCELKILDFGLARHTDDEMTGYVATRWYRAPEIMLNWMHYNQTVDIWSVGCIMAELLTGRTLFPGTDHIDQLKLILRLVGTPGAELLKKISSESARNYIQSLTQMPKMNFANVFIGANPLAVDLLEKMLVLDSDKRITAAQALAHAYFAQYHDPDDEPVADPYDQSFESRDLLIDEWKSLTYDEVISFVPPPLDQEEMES

SMILES	IC50
O=C1NC=C(Nc2ccccc2)CC1c1cccc2[nH]ccc12 (stereo not drawn) [US12351556, Compound 67]	3030 nM
O=C1NC=C(Nc2ccccc2)CC1c1ccccc1Br (stereo not drawn) [US12351556, Compound 69]	1460 nM
O=C1NCC(Nc2ccc(F)cc2)C=C1c1cccc2[nH]ccc12 (stereo not drawn) [US12351556, Compound 119]	1420 nM
COc1ccccc1NC1=CNC(=O)C(c2cccc3[nH]ccc23)C1 (stereo not drawn) [US12351556, Compound 121]	5250 nM
COc1cccc(NC2=CNC(=O)C(c3cccc4[nH]ccc34)C2)c1 (stereo not drawn) [US12351556, Compound 122]	5530 nM
COc1ccc(NC2=CNC(=O)C(c3cccc4[nH]ccc34)C2)cc1 (stereo not drawn) [US12351556, Compound 123]	3670 nM
O=C1NCC(Nc2ccccc2Br)C=C1c1cccc2[nH]ccc12 (stereo not drawn) [US12351556, Compound 141]	2720 nM
O=C1NCC(Nc2ccc(Br)cc2)C=C1c1cccc2[nH]ccc12 (stereo not drawn) [US12351556, Compound 143]	2350 nM

Molecules with a lower IC50, results first:

IC50	SMILES
230 nM	O=C1NCC(Nc2ccccc2F)C=C1c1cccc2[nH]ccc12 (stereo not drawn) [US12351556, Compound 118]
430 nM	O=C1NCC(Nc2ccc(F)cc2)C=C1c1cccc2[nH]ccc12 (stereo not drawn) [US12351556, Compound 120]
1060 nM	Cc1ccccc1NC1=CNC(=O)C(c2cccc3[nH]ccc23)C1 (stereo not drawn) [US12351556, Compound 130]
1040 nM	O=C1NCC(NC2=CC(O)CC=C2)C=C1c1cccc2[nH]ccc12 (stereo not drawn) [US12351556, Compound 134]
660 nM	O=C1NCC(NC2=CC(Br)CC=C2)C=C1c1cccc2[nH]ccc12 (stereo not drawn) [US12351556, Compound 142]
